Assay results taken from patent US8421457B2, “Methods and systems for magnetically resonating both a subject and a substance administered to the subject” (Applied Magnetics, LLC, priority 2008, dated 2013).

Assays:
[1] = test system: patients with high cholesterol; assay: Case report: cholesterol drug combined with MR treatment; type: in vivo, human; details: person taking Lipitor; three MR treatments per week for twenty months
Method: In one example, a person was taking the drug Lipitor to manage their cholesterol levels. The subject began a series of three treatments per week for twenty months, and continuing on an ongoing basis. […] In order to provide MR treatment for cholesterol, the MR device settings may range from an amplitude from about 0.4998 μG to about 0.075 μG and a frequency from about 2.1 Hz to about 13.9996 Hz, or ranges within these ranges.

[2] = test system: diabetic peripheral neuropathy patients; assay: Case report: diabetic neuropathy drugs combined with MR treatment; type: in vivo, human; details: diabetic neuropathy in both feet, taking the drugs; resonated four times for one hour each
Description: In one subject, a person suffered with diabetic neuropathy in both feet. […] The subject was taking the drugs Actos, Metaformin, and Lisinopril. The subject was resonated four times for one hour each time. […] As of fifteen months after the last treatment session, the sensation remained. Also, the subjects from Example 5 reported improvements with respect to symptoms relating to diabetic neuropathy (e.g., lack of sensation and pain).
In providing MR treatment to a subject with diabetic neuropathy, an amplitude of about 0.455 μG to about 0.53 μG, with a frequency of about 12.7 Hz to about 14.84 Hz may be used.

[3] = test system: cancer patients; details: in vivo
Method: In one example, carboplaton and taxol are cancer drugs for treating cancer, including ovarian cancer.
For this protocol, the MR device settings may be, for example, amplitude=about 0.017 μG to about 0.3 μG, frequency=about 0.3 Hz to about 9.6 Hz, waveform=sine or square, and MR treatment duration=about 80 minutes.

[4] = test system: fibromyalgia patients; assay: Case reports: fibromyalgia, drugs combined with MR treatment; type: in vivo, human; details: same subject; thirteen MR treatments within a two-month period
Method: In one example, a person experienced fibromyalgia for a number of years. The subject also experienced insomnia, restless legs, and chronic fatigue. The subject took the drug Naproxen (Aleve). The subject received seven consecutive days of 1 to 1.5 hour treatments.
Their primary complaint was back pain. […] The subject received thirteen treatments within a two-month period. […] Approximately two months after completing their first series of treatment, they began a second regimen of ten treatments within a two-month period.
In a further example, a person at least fifty years old suffered from fibromyalgia for a number of years. […] The subject received daily (when possible) treatments for approximately one year.

[5] = test system: subject with back pain; assay: Case reports: low back pain, drugs combined with MR treatment; type: in vivo, human; details: person, taking the drugs; for decrease in pain level and stiffness level: four one-hour MR treatments over eleven days; for decrease in stiffness level: one MR treatment of one hour
Description: In one example, a person experienced pain and stiffness associated with their low back. The subject was taking Aspirin and Ibuprofen. Over the course of ten days, the subject received three treatments. The result was a decrease in pain level of 50-100%.
In another example, a person experienced pain and stiffness associated with their low back. The subject was taking Aspirin and Ibuprofen. Over the course of eleven days, the subject received four treatments, each lasting one hour. The result was a decrease in pain level and stiffness level of 75%.
In another example, a person experienced pain and stiffness associated with their low back. The subject was taking Aspirin and Ibuprofen. The subject received one treatment, lasting one hour. The result was a decrease in pain level of 60-70% and stiffness level of 90%.
In providing MR treatment to a subject with back pain, an amplitude of about 0.01 μG to about 0.457 μG, with a frequency of about 0.2799 Hz to about 12.8 Hz may be used.

[6] = test system: migraine and headache patients; assay: Case reports: migraine and headache drugs combined with MR treatment; type: in vivo, human
Method: The subject was resonated ten times for 1 to 1.5 hours per treatment over a one-month period.
In another example, a person experienced pain associated with migraines. […] The subject received two one-hour treatments three months apart.
In a further example, a person experienced pain associated with severe headaches. The subject took Aspirin to treat the pain. The subject received one treatment for one hour.

[7] = test system: osteoarthritis patients; details: for results of continuing treatment / stiffness in hand, before treatment / pain in thumb, before treatment: person, taking the drugs; for results of continuing treatment: back pain (degenerative disk disease, sciatica), resonated approx. three times per week for more than one year; for stiffness in hand, before treatment / pain in thumb, before treatment: osteoarthritis, before MR; for stiffness in hand, before treatment: scale zero (feels great) to ten (feels terrible)
Description: In one example, a person suffered from back pain due to degenerative disk disease in their low back and sciatica. […] The subject was resonated approximately three times per week for more than one year.
In another example, a person experienced arthritis pain in a number of joints, including their hips, hands, and shoulders. The subject also suffered from sciatica in their hips and legs. The subject was taking Celebrex. The subject was resonated at least three times per week for one to two hours per session.
In a further example, a person experienced osteoarthritis pain and stiffness in their hands and finger joints. […] The subject was resonated twice for one-half hour per treatment. The subject was asked to rate their pain on a scale of zero (feels great) to ten (feels terrible) before and after treatment.
Alternatively, an amplitude of about 0.01 μG to about 0.46 μG, with a frequency of about 0.2799 Hz to about 12.8765 Hz may be used.

[8] = test system: injured patients; assay: Case reports: injuries, drugs combined with MR treatment; type: in vivo, human; details: person, taking the drugs; for elimination of pain and stiffness: injured right knee (old Meniscus tear), 3 MR treatments of 1 hour over 5 days
Description: In another example, a person experienced pain and stiffness associated with a shoulder injury. The subject was taking Aspirin and Ibuprofin. The subject received two one-hour treatments three days apart. The result was a decrease in pain level of 50% and a decrease in stiffness of 50%.
In a further example, a person experienced pain and stiffness associated with an injured knee. The subject was taking Aspirin and Ibuprofin. Over the course of 5 days, the subject received 3 treatments, each lasting 1.5 hours. The result was a decrease in pain level of 50-100% and a decrease in stiffness of 50%.
In a further example, a person experienced pain and stiffness associated with an injured right knee that was the result of an old Meniscus tear injury. The subject was taking Aspirin and Ibuprofin. Over the course of 5 days, the subject received 3 treatments, each lasting 1 hour. The result was a 100% elimination of their pain an stiffness.
In another example, a person experienced pain and stiffness associated with an injured left knee. The subject was taking Aspirin and Ibuprofin. Over the course of three days, the subject received two treatments, each lasting one hour. The result was a decrease in pain level of 75% and a decrease in stiffness of 50%.
In providing MR treatment to a subject with pain and/or one or more injuries, an amplitude of about 0.01 μG to about 0.5 μG, with a frequency of about 0.2799 Hz to about 14.0 Hz may be used.

[9] = injured knee, 3 MR treatments of 1.5 hours over 5 days
[10] = injured left knee, two one-hour MR treatments over three days
[11] = shoulder injury, two one-hour MR treatments three days apart
[12] = same subject, after being resonated twice for one-half hour per treatment, scale zero to ten

CC(C)c1c(C(=O)Nc2ccccc2)c(-c2ccccc2)c(-c2ccc(F)cc2)n1CC[C@@H](O)C[C@@H](O)CC(=O)O [Lipitor]
cholesterol levels [1]: at the best ratio in twenty years

CCc1ccc(CCOc2ccc(CC3SC(=O)NC3=O)cc2)nc1 (stereo not drawn) [Actos]
result of treatment on sensation in feet [2]: sensation returned for touch, texture, and temperature

N.N.O=C([O-])C1(C(=O)[O-])CCC1.[Pt+2] [carboplaton]
reported effects after taking the cancer drugs [3]: increased lethargy and decreased energy and motivation

NCCCC[C@H](N[C@@H](CCc1ccccc1)C(=O)O)C(=O)N1CCC[C@H]1C(=O)O [Lisinopril]
result of treatment on sensation in feet [2]: sensation returned for touch, texture, and temperature
pain level after treatment, first series [4]: 0.5

CC(C)Cc1ccc(C(C)C(=O)O)cc1 (stereo not drawn) [Ibuprofin]
decrease in pain level and stiffness level [5]: 75%
decrease in stiffness level [5]: 90%
results on migraines ([6]; person with migraines taking the drugs, resonated ten times, 1 to 1.5 hours, over one month): decreased frequency and duration of migraines
pain level before being resonated ([6]; person with migraines taking the drugs, scale of zero to ten): nine
reduction in pain level ([6]; person with migraines taking the drugs, two one-hour MR treatments three months apart): 50%
pain level after treatment ([6]; same subject, after ten MR treatments over one month, scale of zero to ten): two
results of continuing treatment [7]: significantly less pain, an improved range of motion, and improved sleep
stiffness in hand, before treatment [7]: two
pain in thumb, before treatment ([7]; scale zero to ten): three
decrease in stiffness [8, 9]: 50%
decrease in pain level [8, 10]: 75%
decrease in stiffness [8, 10]: 50%
elimination of pain and stiffness [8]: 100%
decrease in pain level [8, 11]: 50%
decrease in stiffness [8, 11]: 50%

CN(C)C(=N)NC(=N)N [Metaformin]
result of treatment on sensation in feet [2]: sensation returned for touch, texture, and temperature

CC(=O)Oc1ccccc1C(=O)O [Aspirin]
decrease in pain level and stiffness level [5]: 75%
decrease in stiffness level [5]: 90%
pain before treatment ([6]; person, severe headaches, taking Aspirin, before MR): 6.5
pain after treatment ([6]; same subject, after one MR treatment for one hour): zero
results of continuing treatment [7]: significantly less pain, an improved range of motion, and improved sleep
stiffness in hand, before treatment [7]: two
pain in thumb, before treatment ([7]; scale zero to ten): three
pain in thumb, after treatment [7, 12]: zero
stiffness in hand, after treatment [7, 12]: zero
decrease in stiffness [8, 9]: 50%
decrease in pain level [8, 10]: 75%
decrease in stiffness [8, 10]: 50%
elimination of pain and stiffness [8]: 100%
decrease in pain level [8, 11]: 50%
decrease in stiffness [8, 11]: 50%
